Starred links: 1 amine or outer side, 2 acyl side, 3 side chain; linkers in the order of their positions; H or OH if unused. Positions of bridges follow the written chain, without caps; N, C: chain ends. Non-standard residues stand in square brackets, D forms with d. Residues, ends and D or L forms follow the SMILES beside them. *: point of attachment. NMeF = CN[C@@H](Cc1ccccc1)C(=O)O; NMeβAla = CN(CCC(=O)[*:2])[*:1]; NMeL = CN[C@@H](CC(C)C)C(=O)O; NMeV = CN[C@H](C(=O)O)C(C)C; NMeA = CN[C@@H](C)C(=O)O; Piperidide = C1CCN(*)CC1; Sar = CNCC(=O)O; tBu = CC(C)(C)*
Assays:
[1] = PAMPA (parallel artificial membrane permeability assay); type: in vitro ADME; conditions: membrane permeation rate (Pe), 50 mM MOPSO buffer pH 6.5 with 5.0% glycocholic acid, 37° C., 18 hours; for Papp at 18 hours, 50 µM: PAMPA, read-out: iPAMPA Pe
Summary of the method: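 Artificial membrane was 10% (w/v) egg lecithin plus 0.5% (w/v) cholesterol in dodecane on a PVDF filter. A 10 mM DMSO stock was added at 0.5% (v/v) to donor buffer (50 mM MOPSO, pH 6.5, 5.0% glycocholic acid). After 18 h at 37 °C, LC/MS or LC/UV gave donor and acceptor levels for Pe.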

[2] = Metabolic stability in human hepatic microsome; type: in vitro ADME; conditions: microsomes, pH 7.4; human hepatic microsome, NADPH(+); read-out: CL NADPH(+)

| Compound | Papp at 18 hours, 50 µM [1] [nm/s] | microsomal CLint at 1 uM [2] [µL/min/mg] | iPAMPA Pe [1] |
| --- | --- | --- | --- |
| CC[C@H](C)[C@@H]1NC(=O)[C@H](Cc2ccccc2)N(C)C(=O)CN(C)C(=O)C[C@@H](C(=O)N2CCCCC2)NC(=O)[C@H](C(C)C)N(C)C(=O)[C@H](COC(C)(C)C)NC(=O)[C@H](CC(C)C)N(C)C(=O)[C@H](Cc2ccccc2)N(C)C(=O)CN(C)C(=O)[C@H]([C@@H](C)O)NC(=O)[C@H](CC(C)C)N(C)C1=O [DP-168] ([Sar][NMeF]I[NMeL]T[Sar][NMeF][NMeL]S(tBu)[NMeV]D-Piperidide; lactam N-11) | 230 | 85 | – |
| CC(C)C[C@@H]1NC(=O)[C@H]([C@@H](C)O)NC(=O)[C@H](Cc2ccccc2)N(C)C(=O)[C@H](CC(C)C)N(C)C(=O)[C@H](Cc2ccccc2)N(C)C(=O)[C@H](C)N(C)C(=O)[C@H](C)N(C)C(=O)[C@H](CC(C)C)N(C)C(=O)[C@@H](C)NC(=O)C[C@@H](C(=O)N2CCCCC2)NC1=O [DP-169] ([dA][NMeL][NMeA][NMeA][NMeF][NMeL][NMeF]TLD-Piperidide; lactam N-10) | 360 | 43 | – |
| CC(C)C[C@H]1C(=O)N[C@@H](COC(C)(C)C)C(=O)N(C)[C@@H](CC(C)C)C(=O)N[C@H](C(=O)N2CCCCC2)CC(=O)N[C@H](C)C(=O)N(C)[C@@H](C)C(=O)N(C)[C@@H](Cc2ccccc2)C(=O)N(C)[C@@H](CC(C)C)C(=O)N[C@@H]([C@@H](C)O)C(=O)N(C)CC(=O)N1C [DP-170] ([dA][NMeA][NMeF][NMeL]T[Sar][NMeL]S(tBu)[NMeL]D-Piperidide; lactam N-10) | 430 | 22 | – |
| CC(C)C[C@H]1C(=O)N(C)[C@@H](C(C)C)C(=O)N[C@@H](Cc2ccccc2)C(=O)N[C@H](C(=O)N2CCCCC2)CC(=O)N[C@H](C(C)C)C(=O)N[C@@H](COC(C)(C)C)C(=O)N(C)[C@@H](CC(C)C)C(=O)N[C@@H]([C@@H](C)O)C(=O)N(C)[C@@H](Cc2ccccc2)C(=O)NCC(=O)N1C [DP-171] ([dV]S(tBu)[NMeL]T[NMeF]G[NMeL][NMeV]FD-Piperidide; lactam N-10) | 500 | 191 | – |
| CC[C@H](C)[C@@H]1NC(=O)[C@H]([C@@H](C)O)NC(=O)[C@H](C)N(C)C(=O)[C@H](CC(C)C)N(C)C(=O)[C@H](Cc2ccccc2)N(C)C(=O)[C@H](Cc2ccccc2)N(C)C(=O)[C@H](C)N(C)C(=O)[C@H](CC(C)C)N(C)C(=O)[C@@H](C(C)C)NC(=O)C[C@@H](C(=O)N2CCCCC2)NC1=O [DP-172] ([dV][NMeL][NMeA][NMeF][NMeF][NMeL][NMeA]TID-Piperidide; lactam N-10) | – | 25 | 7.0E−05 |
| CC[C@H](C)[C@@H]1NC(=O)[C@H](CC(C)C)N(C)C(=O)[C@H](C)NC(=O)[C@H](C)N(C)C(=O)C[C@@H](C(=O)N2CCCCC2)NC(=O)[C@H](C(C)C)N(C)C(=O)[C@H](Cc2ccccc2)N(C)C(=O)[C@H]([C@@H](C)O)NC(=O)[C@H](CC(C)C)N(C)C(=O)[C@H](Cc2ccccc2)NC1=O [DP-173] ([NMeA]A[NMeL]IF[NMeL]T[NMeF][NMeV]D-Piperidide; lactam N-10) | 580 | 251 | – |
| CC(C)C[C@H]1C(=O)N(C)[C@@H](CC(C)C)C(=O)N(C)[C@@H](CC(C)C)C(=O)N[C@H](C(=O)N2CCCCC2)CC(=O)N(C)CCC(=O)N[C@@H]([C@@H](C)O)C(=O)N(C)[C@@H](C)C(=O)N(C)[C@@H](Cc2ccccc2)C(=O)N(C)[C@@H](Cc2ccccc2)C(=O)NCC(=O)N1C [DP-174] ([NMeβAla]T[NMeA][NMeF][NMeF]G[NMeL][NMeL][NMeL]D-Piperidide; lactam N-10) | 220 | 66 | – |
| CC(C)C[C@H]1C(=O)N[C@H](C(=O)N2CCCCC2)CC(=O)N(C)CC(=O)N[C@@H]([C@@H](C)O)C(=O)N(C)[C@@H](C)C(=O)N(C)[C@@H](Cc2ccccc2)C(=O)NCC(=O)N(C)[C@@H](Cc2ccccc2)C(=O)N(C)[C@@H](CC(C)C)C(=O)N(C)[C@@H](CC(C)C)C(=O)N1C [DP-175] ([Sar]T[NMeA][NMeF]G[NMeF][NMeL][NMeL][NMeL]D-Piperidide; lactam N-10) | 480 | 94 | – |
| CC(C)C[C@H]1C(=O)NCC(=O)N[C@H](C(=O)N2CCCCC2)CC(=O)N[C@H](C(C)C)C(=O)N[C@@H]([C@@H](C)O)C(=O)N(C)[C@@H](C)C(=O)N(C)[C@@H](Cc2ccccc2)C(=O)N(C)[C@@H](Cc2ccccc2)C(=O)N[C@@H](COC(C)(C)C)C(=O)N1C [DP-176] ([dV]T[NMeA][NMeF][NMeF]S(tBu)[NMeL]GD-Piperidide; lactam N-9) | 250 | 47 | – |
| CC(C)C[C@@H]1NC(=O)[C@H](CC(C)C)N(C)C(=O)[C@H](Cc2ccccc2)NC(=O)[C@H](C)NC(=O)[C@H](C(C)C)N(C)C(=O)CN(C)C(=O)[C@H]([C@@H](C)O)NC(=O)[C@H](C)N(C)C(=O)[C@H](CC(C)C)N(C)C(=O)[C@H](C)NC(=O)C[C@@H](C(=O)N(C)[C@@H](Cc2ccccc2)C(=O)N[C@@H](C)C(=O)N2CCCCC2)NC1=O [DP-177] (A[NMeL][NMeA]T[Sar][NMeV]AF[NMeL]LD[NMeF]A-Piperidide; lactam N-11) | 230 | 27 | – |
| CC(C)C[C@@H]1NC(=O)[C@H](CC(C)C)N(C)C(=O)[C@H](C)NC(=O)[C@H](C(C)C)N(C)C(=O)[C@H](Cc2ccccc2)NC(=O)CN(C)C(=O)[C@H]([C@@H](C)O)NC(=O)[C@H](C)N(C)C(=O)[C@H](CC(C)C)N(C)C(=O)[C@@H](C)NC(=O)C[C@@H](C(=O)N(C)[C@@H](Cc2ccccc2)C(=O)N[C@@H](C)C(=O)N2CCCCC2)NC1=O [DP-179] ([dA][NMeL][NMeA]T[Sar]F[NMeV]A[NMeL]LD[NMeF]A-Piperidide; lactam N-11) | 170 | 13 | – |
| CC[C@H](C)[C@@H]1NC(=O)[C@H](C)N(C)C(=O)[C@H](C)N(C)C(=O)[C@H]([C@@H](C)O)NC(=O)[C@H](CC(C)C)N(C)C(=O)[C@H](CC(C)C)NC(=O)[C@H](Cc2ccccc2)N(C)C(=O)[C@@H](C)NC(=O)C[C@@H](C(=O)N(C)[C@@H](Cc2ccccc2)C(=O)N[C@@H](C)C(=O)N2CCCCC2)NC(=O)[C@H](C(C)C)N(C)C(=O)[C@H](Cc2ccccc2)N(C)C1=O [DP-180] ([dA][NMeF]L[NMeL]T[NMeA][NMeA]I[NMeF][NMeV]D[NMeF]A-Piperidide; lactam N-11) | 230 | 35 | – |
| CC(C)C[C@@H]1NC(=O)[C@H](CC(C)C)N(C)C(=O)[C@H](C)N(C)C(=O)[C@H](Cc2ccccc2)NC(=O)[C@H](C(C)C)N(C)C(=O)CNC(=O)[C@H]([C@@H](C)O)NC(=O)[C@H](C)N(C)C(=O)[C@H](CC(C)C)N(C)C(=O)[C@H](C)N(C)C(=O)C[C@@H](C(=O)N(C)[C@@H](Cc2ccccc2)C(=O)N[C@@H](C)C(=O)N2CCCCC2)NC1=O [DP-181] ([NMeA][NMeL][NMeA]TG[NMeV]F[NMeA][NMeL]LD[NMeF]A-Piperidide; lactam N-11) | 180 | 13 | – |
| CC(C)C[C@@H]1NC(=O)[C@H](CC(C)C)N(C)C(=O)[C@@H]2CCCN2C(=O)[C@H](CC(C)C)N(C)C(=O)[C@H](Cc2ccccc2)NC(=O)CNC(=O)[C@H](CC(C)C)N(C)C(=O)[C@H](Cc2ccccc2)NC(=O)CCN(C)C(=O)C[C@@H](C(=O)N(C)[C@@H](Cc2ccccc2)C(=O)N[C@@H](C)C(=O)N2CCCCC2)NC(=O)[C@H]([C@@H](C)O)NC1=O [DP-182] ([NMeβAla]F[NMeL]GF[NMeL]P[NMeL]LTD[NMeF]A-Piperidide; lactam N-11) | 260 | 9 | – |

Source: patent publication US9409952B2, “Peptide-compound cyclization method” (Chugai Seiyaku Kabushiki Kaisha, priority 2011, dated 2016)
